Several values for one entry are separate records, joined by “and”; a condition that tells them apart may be missing. Equal entries are not always repeated. ± gives the uncertainty stated by the source.
Key:
[1] = xn = mol fraction of the nth substance listed

CCCCNCCCC
viscosity
Settings	293.15 K	298.15 K	303.15 K	308.15 K	313.15 K	318.15 K	323.15 K
100 kPa	–	0.81 ± 0.03 mPa·s	0.75 ± 0.03 mPa·s	0.71 ± 0.03 mPa·s	–	–	–
101 kPa	–	–	0.764 ± 0.015 mPa·s and 0.7734 ± 0.0098 mPa·s	0.7184 ± 0.0091 mPa·s and 0.6757 ± 0.011 mPa·s	0.6692 ± 0.0085 mPa·s	0.6249 ± 0.008 mPa·s	0.5859 ± 0.0075 mPa·s
101.33 kPa	0.85 ± 0.009 mPa·s	0.81 mPa·s	0.73 ± 0.008 mPa·s	0.698 mPa·s	0.64 ± 0.007 mPa·s	0.611 mPa·s	0.56 ± 0.006 mPa·s

CC(=O)OC(C)C
101 kPa
Settings	viscosity
298.15 K	0.49 ± 0.0034 mPa·s
308.15 K	0.4342 ± 0.0031 mPa·s and 0.4323 ± 0.0096 mPa·s

CCCCCCn1cc[n+](C)c1C.O=S(=O)([N-]S(=O)(=O)C(F)(F)F)C(F)(F)F
100 kPa
Settings	viscosity [mPa·s]
293.15 K	172 ± 5
298.15 K	129 ± 4
303.15 K	99 ± 2
308.15 K	78 ± 2

C1CC[C@H]2CCCC[C@H]2C1
viscosity [mPa·s]
Settings	293.15 K	303.15 K	313.15 K	323.15 K
100 kPa	–	2.704 ± 0.07	2.214 ± 0.056	1.861 ± 0.047
101 kPa	3.337 ± 0.076	2.444 ± 0.057	–	–
101.3 kPa	3.361 ± 0.05	2.641 ± 0.04	–	–

CCCCCCCBr
101 kPa
Settings	viscosity [mPa·s]
293.15 K	1.205 ± 0.026
303.15 K	1.05 ± 0.023
313.15 K	0.925 ± 0.02
323.15 K	0.82 ± 0.018

CCC[N+]1(C)CCCC1.O=S(=O)([N-]S(=O)(=O)C(F)(F)F)C(F)(F)F
viscosity [mPa·s]
Settings	293.15 K	298.15 K	303.15 K	308.15 K	313.15 K	318.15 K	323.15 K
101 kPa	–	–	–	–	34.4 ± 3.6	–	–
101.3 kPa	76.4 ± 15	61.2 ± 12	49.8 ± 10	41.1 ± 8.2	34.4 ± 6.9	29.2 ± 5.8	25 ± 5

CCCC(C)O (stereo unspecified)
Settings	viscosity
293.15 K, 101.33 kPa	3.376 ± 0.34 mPa·s
298.15 K, 100 kPa	3.426 ± 0.14 mPa·s
298.15 K, 101 kPa	3.38 ± 0.059 mPa·s and 3.2 ± 0.13 mPa·s
298.15 K, 101.3 kPa	3.45 ± 0.095 mPa·s
303 K, 101.33 kPa	2.677 ± 0.069 mPa·s
303.15 K, 101 kPa	2.739 ± 0.084 mPa·s
303.15 K, 101.33 kPa	2.763 ± 0.28 mPa·s and 2.888 ± 0.038 mPa·s and 2.887 ± 0.033 mPa·s
308.15 K, 101 kPa	2.312 ± 0.072 mPa·s
308.15 K, 101.3 kPa	2.32 ± 0.064 mPa·s
313 K, 101.33 kPa	2.014 ± 0.052 mPa·s
313.15 K, 101 kPa	1.943 ± 0.061 mPa·s
313.15 K, 101.3 kPa	1.92 ± 0.053 mPa·s
313.15 K, 101.33 kPa	2.017 ± 0.027 mPa·s
318.15 K, 101 kPa	1.674 ± 0.03 mPa·s
323.15 K, 101 kPa	1.479 ± 0.048 mPa·s
323.15 K, 101.33 kPa	1.521 ± 0.15 mPa·s

CC(CC(C)(C)C)CC(C)(C)CC(C)(C)C (stereo unspecified)
viscosity
Settings	293.15 K	298.15 K	303.15 K	313.15 K	323.15 K
100 kPa	3.64 ± 0.23 mPa·s and 3.64 ± 0.17 mPa·s and 3.782 ± 0.098 mPa·s (2×)	–	2.984 ± 0.078 mPa·s	2.43 ± 0.16 mPa·s and 2.43 ± 0.11 mPa·s and 2.411 ± 0.062 mPa·s (2×)	2.01 ± 0.13 mPa·s and 2.01 ± 0.09 mPa·s and 2.018 ± 0.051 mPa·s (2×)
101.33 kPa	–	3.343 ± 0.041 mPa·s	–	–	–

CCOC(=O)C(=O)OCC
101 kPa
Settings	viscosity [mPa·s]
313.15 K	1.361 ± 0.082
323.15 K	1.154 ± 0.07

C1CCNCC1
101 kPa
Settings	viscosity [mPa·s]
298.15 K	1.31 ± 0.04
303.15 K	1.21 ± 0.038
323.15 K	0.757 ± 0.02

CC(=O)[O-].CC[NH+](CC)CC
101 kPa
Settings	viscosity
303.15 K	19.6 ± 0.41 mPa·s and 19.64 ± 0.5 mPa·s
308.15 K	16.13 ± 0.33 mPa·s and 16.13 ± 0.41 mPa·s
313.15 K	14.81 ± 0.31 mPa·s

CCCCBr
101 kPa
Settings	viscosity
295.95 K	0.6116 ± 0.013 mPa·s
298.15 K	0.606 ± 0.016 mPa·s
303.45 K	0.5621 ± 0.012 mPa·s
308.15 K	0.552 ± 0.015 mPa·s and 0.5235 ± 0.0045 mPa·s
313.25 K	0.5057 ± 0.011 mPa·s
318.15 K	0.502 ± 0.014 mPa·s
323.15 K	0.476 ± 0.013 mPa·s

CC(O)=S
Settings	viscosity
298.1 K, 101 kPa	0.687 ± 0.051 mPa·s and 0.687 ± 0.046 mPa·s

N#C[S-].[Na+] + CO
viscosity [mPa·s], [1], 101.3 kPa
Settings	293.15 K	298.15 K	303.15 K	308.15 K	313.15 K	318.15 K	323.15 K
x1 = 0.003649	0.656 ± 0.049	0.608 ± 0.045	0.563 ± 0.042	0.526 ± 0.039	0.491 ± 0.037	0.46 ± 0.034	0.432 ± 0.032
x1 = 0.01456	0.819 ± 0.061	0.753 ± 0.056	0.695 ± 0.052	0.643 ± 0.048	0.597 ± 0.044	0.556 ± 0.041	0.518 ± 0.039
x1 = 0.03159	0.947 ± 0.07	0.871 ± 0.065	0.803 ± 0.059	0.743 ± 0.055	0.689 ± 0.051	0.646 ± 0.048	0.602 ± 0.045
x1 = 0.0463	1.117 ± 0.082	1.027 ± 0.076	0.947 ± 0.07	0.873 ± 0.064	0.811 ± 0.06	0.753 ± 0.056	0.703 ± 0.052
x1 = 0.05341	1.197 ± 0.088	1.101 ± 0.081	1.011 ± 0.075	0.932 ± 0.069	0.861 ± 0.064	0.798 ± 0.059	0.742 ± 0.055
x1 = 0.07204	1.409 ± 0.1	1.286 ± 0.095	1.176 ± 0.086	1.086 ± 0.08	1.011 ± 0.074	0.923 ± 0.068	0.859 ± 0.063
x1 = 0.08868	1.716 ± 0.13	1.552 ± 0.11	1.416 ± 0.1	1.293 ± 0.095	1.186 ± 0.087	1.092 ± 0.08	1.009 ± 0.074
x1 = 0.09954	1.915 ± 0.14	1.711 ± 0.12	1.514 ± 0.11	1.38 ± 0.1	1.261 ± 0.092	1.16 ± 0.085	1.068 ± 0.078
x1 = 0.1138	2.253 ± 0.17	1.996 ± 0.15	1.793 ± 0.13	1.624 ± 0.12	1.477 ± 0.11	1.353 ± 0.099	1.239 ± 0.09
x1 = 0.1229	2.36 ± 0.17	2.109 ± 0.15	1.904 ± 0.14	1.732 ± 0.13	1.565 ± 0.11	1.426 ± 0.1	1.304 ± 0.095
x1 = 0.1415	2.922 ± 0.21	2.58 ± 0.19	2.295 ± 0.17	2.055 ± 0.15	1.854 ± 0.14	1.683 ± 0.12	1.535 ± 0.11

CCCCBr + ClC(Cl)(Cl)Cl
[1], 101 kPa
Settings	viscosity [mPa·s]
295.95 K, x1 = 0.0935	0.874 ± 0.019
295.95 K, x1 = 0.1213	0.8589 ± 0.018
295.95 K, x1 = 0.171	0.8365 ± 0.018
295.95 K, x1 = 0.2166	0.8163 ± 0.018
295.95 K, x1 = 0.3376	0.7686 ± 0.017
295.95 K, x1 = 0.5094	0.7155 ± 0.015
295.95 K, x1 = 0.6766	0.6738 ± 0.015
303.45 K, x1 = 0.0948	0.7853 ± 0.017
303.45 K, x1 = 0.1316	0.7681 ± 0.017
303.45 K, x1 = 0.1914	0.7427 ± 0.016
303.45 K, x1 = 0.3229	0.698 ± 0.015
303.45 K, x1 = 0.4875	0.6544 ± 0.014
303.45 K, x1 = 0.7961	0.5884 ± 0.013
313.25 K, x1 = 0.127	0.6844 ± 0.015
313.25 K, x1 = 0.2061	0.6557 ± 0.014
313.25 K, x1 = 0.2967	0.6297 ± 0.014
313.25 K, x1 = 0.4576	0.5922 ± 0.013
313.25 K, x1 = 0.6279	0.5598 ± 0.012
313.25 K, x1 = 0.761	0.5382 ± 0.012
313.25 K, x1 = 0.7961	0.5329 ± 0.011

OC(c1ccccc1)c1ccccc1 + CCCCCOC(C)=O
Settings	viscosity [mPa·s]
[1], 298.15 K, 101 kPa, x2 = 0.5	1.496 ± 0.015

[Cl-].[Li+] + CN1CCCC1=O
[1], 298.15 K, 101 kPa
Settings	viscosity [mPa·s]
x1 = 0.03756	2.607 ± 0.021
x1 = 0.03819	2.63 ± 0.021
x1 = 0.04156	2.626 ± 0.021
x1 = 0.07132	3.558 ± 0.027
x1 = 0.07175	3.558 ± 0.027
x1 = 0.07229	3.56 ± 0.027
x1 = 0.1038	4.959 ± 0.037
x1 = 0.1042	4.958 ± 0.037
x1 = 0.1044	4.958 ± 0.037

CCN(C=O)CC + NC=O
viscosity [mPa·s], [1]
Settings	298.15 K	308.15 K	323.15 K
101 kPa, x1 = 0.1	3.55 ± 0.09	2.91 ± 0.08	2.27 ± 0.06
101 kPa, x1 = 0.2	3.62 ± 0.1	2.97 ± 0.08	2.29 ± 0.06
101 kPa, x1 = 0.3	3.51 ± 0.09	2.86 ± 0.08	2.15 ± 0.06
101 kPa, x1 = 0.4	3.25 ± 0.09	2.62 ± 0.07	1.91 ± 0.05
101 kPa, x1 = 0.5	2.93 ± 0.08	2.34 ± 0.06	1.64 ± 0.04
101 kPa, x1 = 0.6	2.52 ± 0.07	2.01 ± 0.05	1.43 ± 0.04
101 kPa, x1 = 0.7	2.24 ± 0.06	1.71 ± 0.05	1.22 ± 0.03
101 kPa, x1 = 0.85	1.61 ± 0.04	1.34 ± 0.04	1.01 ± 0.03
101.33 kPa, x2 = 0.07537	1.391 ± 0.009	–	0.937 ± 0.006
101.33 kPa, x2 = 0.1513	1.585 ± 0.01	–	1.034 ± 0.007
101.33 kPa, x2 = 0.2164	1.736 ± 0.011	–	1.103 ± 0.007
101.33 kPa, x2 = 0.2957	2.021 ± 0.012	–	1.26 ± 0.008
101.33 kPa, x2 = 0.3723	2.312 ± 0.014	–	1.37 ± 0.009
101.33 kPa, x2 = 0.4452	2.614 ± 0.016	–	1.503 ± 0.009
101.33 kPa, x2 = 0.4964	2.776 ± 0.016	–	1.603 ± 0.01
101.33 kPa, x2 = 0.5665	3.138 ± 0.018	–	1.757 ± 0.011
101.33 kPa, x2 = 0.6362	3.333 ± 0.019	–	1.859 ± 0.011
101.33 kPa, x2 = 0.7013	3.547 ± 0.02	–	1.942 ± 0.012
101.33 kPa, x2 = 0.7404	3.678 ± 0.021	–	1.99 ± 0.012
101.33 kPa, x2 = 0.785	3.722 ± 0.021	–	2.046 ± 0.012
101.33 kPa, x2 = 0.8471	3.663 ± 0.021	–	2.045 ± 0.012
101.33 kPa, x2 = 0.93	3.516 ± 0.02	–	1.978 ± 0.012

From the CheMixHub viscosity set
